Results on 28 molecules are retold here after US20050004167A1, “Branched chain amino acid-dependent aminotransferase inhibitors and their use in the treatment of neurodegenerative diseases” (WARNER-LAMBERT COMPANY LLC, priority 2001, published 2005).

By melting point is commonly meant the temperature of the solid-liquid transition.

Data set [1] concerns the target T1, human Branched Chain Amino Acid Aminotransferase cytosolic form (hBCATc) (Homo sapiens, UniProt P54687).
T1 construct: made in house; host or cells: E. coli BL21(DE3)
T1 sequence (P54687 1-386): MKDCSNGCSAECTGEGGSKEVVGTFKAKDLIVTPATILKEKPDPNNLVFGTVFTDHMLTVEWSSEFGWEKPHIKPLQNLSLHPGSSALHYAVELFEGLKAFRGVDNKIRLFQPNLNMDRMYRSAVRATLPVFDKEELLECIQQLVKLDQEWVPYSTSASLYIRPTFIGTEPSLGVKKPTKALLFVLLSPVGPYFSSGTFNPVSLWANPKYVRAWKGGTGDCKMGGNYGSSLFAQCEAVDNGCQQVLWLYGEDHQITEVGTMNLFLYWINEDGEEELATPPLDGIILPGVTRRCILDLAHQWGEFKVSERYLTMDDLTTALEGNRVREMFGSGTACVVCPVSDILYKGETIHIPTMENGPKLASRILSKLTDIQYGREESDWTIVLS
Description: In vitro coupled enzyme assay (glutamate dehydrogenase, NADH formation), human BCATc. It counts as biochemical. Particulars: recombinant human BCATc, 37° C., 25 mM phosphate buffer pH 7.8; several values in a cell = repeat determinations; read-out: RhBCATc. The protocol: In vitro enzyme assay—human Branched Chain Amino Acid Aminotransferase cytosolic form (hBCATc) and mitochondrial form (hBCATm) as well as rat BCAT cytosolic form were assayed at 37° C. in 25 mM phosphate buffer pH 7.8. In addition, 2 mM DTT and 12.5 mM […] were added to the assay mixture. A coupling enzyme assay was used to monitor the production of glutamate. The formation of NADH from NAD+ at […] was followed on a 96-well plate Molecular Devices plate reader.
The following components were used in this coupled assay: 4 mM ADP, 1 mM NAD+, 750 μM L-Leucine, 500 μM α-ketoglutarate, 10 μM pyridoxal phosphate, 1 unit glutamate dehydrogenase, and 1.25 μg of the appropriate BCAT enzyme. Inhibitions by compounds were assayed by adding various concentrations to this coupled assay procedure as a DMSO stock up to a 5% v/v DMSO/buffer ratio.
Enzyme Preparation—humanBCATc and ratBCATc were expressed in BL21(DE3) cells. A growing culture of cells was induced with 1 mM IPTG at room temperature overnight. These cells were harvested by centrifugation at 10,000 g for 20 minutes. The supernatant was discarded, and the cells were stored at −80° C. until needed. The protein was purified by the following method. The cell paste was resuspended in extraction buffer (0.1 M phosphate, pH 8.0, with 0.01 M Tris-HCL and 5 mM TCEP and then lysed on a French Press at 1000 psi. The lysate was centrifuged at 10,000 g for 15 minutes, and the pellet was discarded. The supernatant was loaded onto a Hitrap Chelating column previously charged with 0.1 M NiSO4 and washed with 3 to 4 column volumes of extraction buffer. The column was then washed with 0.01 Tris, pH 7.5, 10% glycerol, 150 mM NaCl, 5 mM TCEP for two column volumes. The column was then further washed with two column volumes of 0.1 M phosphate, pH 6.0, 0.01 M Tris, 10% glycerol and 750 mM NaCl. Finally, the column was washed with two column volumes of the same buffer plus 50 mM imidazole. The BCAT enzyme was then eluted with the same buffer but with 350 mM imidazole. The eluant was then dialyzed overnight against 10 mM phosphate buffer pH 8.0, 10% glycerol, and 5 mM TCEP. The dialyzed protein was then loaded onto a Q-sepharose column and eluted using a salt gradient. Active fractions were collected and further purified on a Superose-12 column to yield pure BCAT protein.

Several values for one entry are separate records, joined by “and”; a condition that tells them apart may be missing. Equal entries are not always repeated.

Take `O=C(NNS(=O)(=O)c1cc(Cl)cc(Cl)c1)c1cnc2ccccc2c1` (hydrate or solvate) [Example 139, 3-Quinolinecarboxylic acid, 2-[(3,5-dichlorophenyl)sulfonyl]hydrazide]: the melting point fell in the range of 241.3 to 241.9 °C.

For `O=C(NNS(=O)(=O)c1ccccc1)c1nccc2ccccc12` (hydrate or solvate) [Example 152, Isoquinoline-1-carboxylic acid 2-(phenylsulfonyl)hydrazide], the melting point lay in the range of 198 to 200 °C.

Regarding `O=C(NNS(=O)(=O)c1ccccc1)c1ccc2[nH]ccc2c1` (hydrate or solvate) [Example 153, 1H-Indole-5-carboxylic acid 2-(phenylsulfonyl)hydrazide], the melting point fell in the range of 209 to 211 °C.

`O=C(NNS(=O)(=O)c1ccccc1)c1cnc2ccccc2c1` (hydrate or solvate) [Example 154, Quinoline-3-carboxylic acid 2-(phenylsulfonyl)hydrazide] returned a melting point of 249 to 250 °C.

Turning to `O=C(NNS(=O)(=O)c1c(Cl)cccc1Cl)c1ccc2oc3ccccc3c2c1` [Example 28, 2-Dibenzofurancarboxylic acid 2-[(2,6-dichlorophenyl)sulfonyl]hydrazide], the melting point was in the range of 202 to 203 °C. Moreover, in data set [1], the IC50 is over 100 µM.

Molecule `O=C(NNS(=O)(=O)c1ccccc1Br)c1cc2cc(Cl)ccc2o1` [Example 44, 2-Benzofurancarboxylic acid, 5-chloro-2-[(2-bromophenyl)sulfonyl]hydrazide] showed a melting point of 206.4 to 207.3 °C. Moreover, in data set [1], the IC50 came out at 3.44 µM.

`Cc1ccccc1S(=O)(=O)NNC(=O)c1cc2cc(Cl)ccc2o1` [Example 46, 2-Benzofurancarboxylic acid, 5-chloro-2-[(2-methylphenyl)sulfonyl]hydrazide]: the melting point was 190.5 to 192 °C. In addition, the IC50 in data set [1] is 1.08 µM and 0.7 µM.

In turn, `O=C(NNS(=O)(=O)c1ccccc1C(F)(F)F)c1ccc2ncccc2c1` [Example 134, 6-Quinolinecarboxylic acid, 2-[(2-trifluoromethylphenyl)sulfonyl]hydrazide] yielded a melting point of 236.7 to 237.4 °C. For the same molecule, in data set [1], the IC50 came to 17 µM.

`O=C(NNS(=O)(=O)c1ccccc1OC(F)(F)F)c1ccc2ncccc2c1` [Example 136, 6-Quinolinecarboxylic acid, 2-[(2-trifluoromethoxyphenyl)sulfonyl]hydrazide]: the melting point was 243.5 to 243.9 °C. For the same molecule, the IC50 in data set [1] stood at 40 µM.

With `O=C(NNS(=O)(=O)c1ccc(F)c(Cl)c1)c1ccc2ncccc2c1` [Example 140, 6-Quinolinecarboxylic acid, 2-[(3-chloro-4-fluorophenyl)sulfonyl]hydrazide], the melting point lay within 241.9 to 242.6 °C. In data set [1], the IC50 was over 100 µM.

As for `O=C(NNS(=O)(=O)c1ccc(F)c(Cl)c1)c1cnc2ccccc2c1` [Example 141, 3-Quinolinecarboxylic acid, 2-[(3-chloro-4-fluorophenyl)sulfonyl]hydrazide], the melting point fell in the range of 245 to 245.7 °C. The IC50 in data set [1] is over 100 µM.

The molecule `COc1cccc(S(=O)(=O)NNC(=O)c2ccc3ncccc3c2)c1` [Example 142, 6-Quinolinecarboxylic acid, 2-[(3-methoxyphenyl)sulfonyl]hydrazide] had a melting point of 201.9 to 202.7 °C. For the same molecule, the IC50 in data set [1] came out at 46 µM.

Consider `COc1cccc(S(=O)(=O)NNC(=O)c2cnc3ccccc3c2)c1` [Example 143, 3-Quinolinecarboxylic acid, 2-[(3-methoxyphenyl)sulfonyl]hydrazide], for which the melting point is 226.9 to 227.2 °C. In addition, in data set [1], the IC50 is 80 µM.

Molecule `O=C(NNS(=O)(=O)c1cccc(Br)c1)c1ccc2ncccc2c1` [Example 144, 6-Quinolinecarboxylic acid, 2-[(3-bromophenyl)sulfonyl]hydrazide] gave a melting point of 216 to 216.8 °C. In addition, in data set [1], the IC50 was 29 µM.

In the case of `O=C(NNS(=O)(=O)c1cccc(Br)c1)c1cnc2ccccc2c1` [Example 145, 3-Quinolinecarboxylic acid, 2-[(3-bromophenyl)sulfonyl]hydrazide], the melting point lay in the range of 231.5 to 232.3 °C. The IC50 in data set [1] is 80 µM.

For `CCOc1cccc2cc(C(=O)NNS(=O)(=O)c3ccccc3)oc12` [Example 147, 7-Ethoxy-2-benzofurancarboxylic acid 2-(phenylsulfonyl)-hydrazide], the melting point lay in the range of 223 to 224 °C.

With `O=C(NNS(=O)(=O)c1ccccc1)c1cc2cccc(Cl)c2o1` [Example 148, 7-Chloro-benzofuran-2-carboxylic acid 2-(phenylsulfonyl)hydrazide], the melting point lay in the range of 223 to 224 °C.

For the molecule `Nc1ccc2[nH]c(C(=O)NNS(=O)(=O)c3ccccc3)cc2c1` [Example 150, 2-Indolecarboxylic acid, 5-amino-2-phenylsulfonyl hydrazide], the melting point lay in the range of 240.2 to 241.1 °C.

As to `O=C(NNS(=O)(=O)c1ccc([N+](=O)[O-])cc1)c1ccc2oc3ccccc3c2c1` [Example 159, 2-Dibenzofurancarboxylic acid, 2-(4-nitrophenyl)sulfonyl hydrazide], the melting point fell in the range of 239.3 to 239.9 °C.

As to `COc1ccc(S(=O)(=O)Nc2ccc3oc(C(=O)NNS(=O)(=O)c4ccccc4)cc3c2)cc1` [Example 160, 2-Benzofurancarboxylic acid, 5-(4-methoxyphenylsulfonylamino)-, 2-(phenylsulfonyl)hydrazide], the melting point lay in the range of 213 to 214 °C.

Regarding `Cc1ccc(S(=O)(=O)Nc2ccc3oc(C(=O)NNS(=O)(=O)c4ccccc4)cc3c2)cc1` [Example 161, 2-Benzofurancarboxylic acid, 5-(4-methylphenylsulfonylamino)-, 2-(phenylsulfonyl)hydrazide], the melting point lay in the range of 181 to 183 °C.

Regarding `O=C(NNS(=O)(=O)c1ccccc1[N+](=O)[O-])c1ccc2oc3ccccc3c2c1` [Example 162, 2-Dibenzofurancarboxylic acid, 2-[(2-nitrophenyl)sulfonyl]hydrazide], the melting point fell in the range of 223.4 to 224.1 °C.

For the molecule `CCCCCc1ccc(S(=O)(=O)Nc2ccc3oc(C(=O)NNS(=O)(=O)c4ccccc4)cc3c2)cc1` [Example 163, 2-Benzofurancarboxylic acid, 5-(4-pentylphenylsulfonylamino)-, 2-(phenylsulfonyl)hydrazide], the melting point was in the range of 169 to 169.8 °C.

`CC(C)Nc1ccc2oc(C(=O)NNS(=O)(=O)c3ccccc3)cc2c1` [Example 164, 2-Benzofurancarboxylic acid, 5-(N-isopropylamino)-, 2-(phenylsulfonyl)hydrazide]: the melting point was 94.7 to 95.5 °C.

Molecule `CCCc1ccc(S(=O)(=O)Nc2ccc3oc(C(=O)NNS(=O)(=O)c4ccccc4)cc3c2)cc1` [Example 165, 2-Benzofurancarboxylic acid, 5-(4-propyllphenylsulfonylamino)-, 2-(phenylsulfonyl)hydrazide] came in with a melting point of 160.4 to 161.1 °C.

`Nc1ccccc1S(=O)(=O)NNC(=O)c1ccc2oc3ccccc3c2c1` [Example 166, 2-Dibenzofurancarboxylic acid, 2-[(2-aminophenyl)sulfonyl]hydrazide] displayed a melting point of 217.9 to 218.4 °C.

For the molecule `O=C(NNS(=O)(=O)c1ccccc1)c1cc2cc([N+](=O)[O-])ccc2[nH]1` [Example 170, 2-Indolecarboxylic acid, 5-nitro-2-phenylsulfonyl hydrazide], the melting point lay in the range of 268.2 to 269.1 °C.

`O=C(NNS(=O)(=O)c1ccccc1)c1cc2cc(Cl)ccc2[nH]1` [Example 171, 2-Indolecarboxylic acid, 5-chloro-2-phenylsulfonyl hydrazide] yielded a melting point of 79.1 to 79.9 °C.
